# In patent US10633407B2, “14-membered ketolides and methods of their preparation and use” (President and Fellows of Harvard College, priority 2014, dated 2020):
# Columns and labels:
# Assay in all cases: CLSI broth dilution MIC determination
# Assay type in all cases: cell-based
# [1] = tested on: E. coli ATCC 25922
# Text: (§1) MIC data was collected for the novel macrolides that this platform has produced against over 21 unique strains of B. subtilis, E. coli, S. aureus, S. pneumoniae, and H. influenzae, including several multidrug-resistant strains, with a special focus on macrolide resistant mechanisms (vide supra). Azithromycin (Azithro) and Solithromycin (Solithro) were included as a control macrolides in many cases. CLSI standard procedures for broth dilution MIC determination were used. […] These genotypes can be constitutive or inducible.
# [2] = tested on: E. coli CTX-M-14; conditions: Gram-negative
# Text: as §1
# [3] = tested on: E. coli NDM-1; conditions: Gram-negative
# Text: as §1
# [4] = tested on: E. coli TEM-1; conditions: E. coli TEM-1; Gram-negative
# Text: as §1
# [5] = tested on: H. influenzae ATCC49247; conditions: Gram-negative
# Text: as §1
# [6] = tested on: K. pneumoniae TEM-10; conditions: Gram-negative
# Text: as §1
# [7] = tested on: S. aureus ATCC 29213
# Text: as §1
# [8] = tested on: S. aureus MRSA: USA100; conditions: S. aureus MRSA: USA100; Gram-positive
# Text: as §1
# [9] = tested on: S. aureus MRSA: USA300
# Text: as §1
# [10] = tested on: S. aureus USA600, GISA; conditions: S. aureus USA600, GISA; Gram-positive
# Text: as §1
# [11] = tested on: S. aureus erm A genotype; conditions: S. aureus erm A genotype; Gram-positive
# Text: as §1
# [12] = tested on: S. pneumoniae ATCC 49619; conditions: S. pneumoniae ATCC 49619; Gram-positive
# Text: as §1
# [13] = tested on: S. pneumoniae mef A genotype (second strain so labelled); conditions: Gram-positive
# Text: as §1
# [14] = tested on: S. pyogenes ATCC 19615; conditions: S. pyogenes ATCC 19615; Gram-positive
# [15] = tested on: S. pyogenes Macrolide-resistant; conditions: S. pyogenes Macrolide-resistant; Gram-positive
# [16] = tested on: E. faecalis ATCC 29212; conditions: E. faecalis ATCC 29212; Gram-positive
# [17] = tested on: E. faecalis Vancomycin-resistant; conditions: E. faecalis Vancomycin-resistant; Gram-positive
# [18] = tested on: A. baumannii ATCC 19606
# [19] = tested on: A. baumannii imipenem-resistant; conditions: Gram-negative
# [20] = tested on: A. baumannii chromosomal class C; conditions: Gram-negative
# [21] = tested on: A. baumannii IMP-4; conditions: Gram-negative
# [22] = tested on: K. pneumoniae ATCC 10031
# [23] = tested on: K. pneumoniae KPC-2; conditions: Gram-negative
# [24] = tested on: K. pneumoniae SHV-12; conditions: Gram-negative
# [25] = tested on: P. aeruginosa ATCC 27853
# [26] = tested on: P. aeruginosa HPA101-1477; conditions: Gram-negative
# [27] = tested on: H. influenzae Erythro >4, Azithro 1; conditions: H. influenzae Erythro >4, Azithro 1; Gram-negative
# Text: as §1, with “Azithromycin (Azithro) and Solithromycin (Solithro) were included as a control macrolides in many cases.” left out
# [28] = tested on: E. coli MP-532 clinical-cErmB; conditions: E. coli MP-532, clinical-cErmB
# Text: as §1
# [29] = tested on: E. coli MP-541 clinical
# Text: as §1
# [30] = tested on: E. coli MP-9 ATCC25922:tolC; conditions: E. coli MP-9, ATCC25922:tolC
# Text: as §1
# [31] = tested on: S. aureus (MRSA) MP-513 ST-228 cErm (Clinical-cErm)
# Text: as §1
# [32] = tested on: S. aureus MP-17 ATCCBAA-977 (BAA 977 iErm); conditions: S. aureus MP-17, ATCCBAA-977, iErm
# Text: as §1
# [33] = tested on: P. aeruginosa MP-7 PAO1
# [34] = tested on: P. aeruginosa MP-8 PAO1:mex (mex-oprM-deletion); conditions: P. aeruginosa MP-8, PAO1:mex, mex-oprM-deletion
# [35] = tested on: K. pneumoniae MP-548 clinical
# [36] = tested on: K. pneumoniae MP-546 Clinical-MDR
# [37] = tested on: A. baumannii MP-577 Clinical-AZT low
# [38] = tested on: A. baumannii MP-576 Clinical-MDR
# [39] = S. aureus MRSA: USA300 (MP-549, msr(a))
# [40] = A. baumannii ATCC 19606 (MP-15)
# [41] = K. pneumoniae ATCC 10031 (MP-14)
# [42] = P. aeruginosa ATCC 27853 (MP-3)
compound,measurement,setting,value
CC[C@H]1OC(=O)[C@@](C)(F)C(=O)[C@H](C)[C@@H](O[C@@H]2OC(C)CC(N(C)C)C2O)[C@](C)(OC)C[C@@H](C)C(=O)[C@H](C)[C@H]2N(C/C=C/Cn3cc(-c4cccc(N)c4)nn3)C(=O)O[C@]12C (stereo partly shown) [FSM-11563],MIC,"[1]; E. coli ATCC 25922, Gram-negative",16 µg/mL
same,MIC,[2],> 32 µg/mL
same,MIC,[3],> 32 µg/mL
same,MIC,[4],16 µg/mL
same,MIC,[5],2 µg/mL
same,MIC,[6],32 µg/mL
same,MIC,"[7]; S. aureus ATCC 29213, Gram-positive",0.0625 µg/mL
same,MIC,[8],> 32 µg/mL
same,MIC,"[9]; S. aureus MRSA: USA300, Gram-positive",0.125 µg/mL
same,MIC,[10],> 32 µg/mL
same,MIC,[11],> 32 µg/mL
same,MIC,[12],≤ 0.0312 µg/mL
same,MIC,[13],≤ 0.0312 µg/mL
same,MIC,[14],≤ 0.0312 µg/mL
same,MIC,[15],≤ 0.0312 µg/mL
same,MIC,[16],≤ 0.0312 µg/mL
same,MIC,[17],4 µg/mL
same,MIC,"[18]; A. baumannii ATCC 19606, Gram-negative",4 µg/mL
same,MIC,[19],4 µg/mL
same,MIC,[20],2 µg/mL
same,MIC,[21],> 32 µg/mL
same,MIC,"[22]; K. pneumoniae ATCC 10031, Gram-negative",4 µg/mL
same,MIC,[23],> 32 µg/mL
same,MIC,[24],> 32 µg/mL
same,MIC,"[25]; P. aeruginosa ATCC 27853, Gram-negative",32 µg/mL
same,MIC,[26],> 32 µg/mL
same,MIC,[27],4 µg/mL
CCC1OC(=O)C(C)(F)C(=O)C(C)C(OC2OC(C)CC(N(C)C)C2O)C(C)(OC)CC(C)C(=O)C(C)C2N(CC=C=Cn3cc(-c4ccnc(N)n4)nn3)C(=O)OC12C (stereo not shown) [FSM-22737],MIC,[1]; E. coli ATCC 25922 (MP-4),16 µg/mL
same,MIC,[28],>64 µg/mL
same,MIC,[29],16 µg/mL
same,MIC,[30],2 µg/mL
same,MIC,[31],>64 µg/mL
same,MIC,[7]; S. aureus ATCC 29213 (MP-12),0.25 µg/mL
same,MIC,[32],0.25 µg/mL
same,MIC,[9]; [39],0.25 µg/mL
same,MIC,[18]; [40],16 µg/mL
same,MIC,[22]; [41],8 µg/mL
same,MIC,[25]; [42],>64 µg/mL
same,MIC,[33],>64 µg/mL
same,MIC,[34],16 µg/mL
same,MIC,[35],64 µg/mL
same,MIC,[36],>64 µg/mL
same,MIC,[37],32 µg/mL
same,MIC,[38],>64 µg/mL
CCC1OC(=O)C(C)(F)C(=O)C(C)C(OC2OC(C)CC(N(C)C)C2O)C(C)(OC)CC(C)C(=O)C(C)C2N(CC=C=Cn3cc(-c4nccc(N)n4)nn3)C(=O)OC12C (stereo not shown) [FSM-22738],MIC,[1]; E. coli ATCC 25922 (MP-4),8 µg/mL
same,MIC,[28],>64 µg/mL
same,MIC,[29],16 µg/mL
same,MIC,[30],1 µg/mL
same,MIC,[31],32 µg/mL
same,MIC,[7]; S. aureus ATCC 29213 (MP-12),0.25 µg/mL
same,MIC,[32],0.25 µg/mL
same,MIC,[9]; [39],0.25 µg/mL
same,MIC,[18]; [40],8 µg/mL
same,MIC,[22]; [41],4 µg/mL
same,MIC,[25]; [42],64 µg/mL
same,MIC,[33],64 µg/mL
same,MIC,[34],8 µg/mL
same,MIC,[35],64 µg/mL
same,MIC,[36],>64 µg/mL
same,MIC,[37],32 µg/mL
same,MIC,[38],>64 µg/mL
